This passage reports AC50 results from ChEMBL document CHEMBL5291721, “A preclinical secondary pharmacology resource illuminates target-adverse drug reaction associations of marketed drugs” (Nat Commun, 2023).

Among the targets are Melanocortin receptor 3 (Homo sapiens, UniProt P41968); Vasopressin V2 receptor (Homo sapiens, UniProt P30518); Cannabinoid receptor 1 (Homo sapiens, UniProt P21554); Melanocortin receptor 4 (Homo sapiens, UniProt P32245); Motilin receptor (Homo sapiens, UniProt O43193).
Assay [1] deals with Kappa-type opioid receptor (Homo sapiens, UniProt P41145).
The target of assay [2] is T1, Prostaglandin G/H synthase 1 (Rattus norvegicus, UniProt Q63921).
T1 sequence (Q63921 whole entry): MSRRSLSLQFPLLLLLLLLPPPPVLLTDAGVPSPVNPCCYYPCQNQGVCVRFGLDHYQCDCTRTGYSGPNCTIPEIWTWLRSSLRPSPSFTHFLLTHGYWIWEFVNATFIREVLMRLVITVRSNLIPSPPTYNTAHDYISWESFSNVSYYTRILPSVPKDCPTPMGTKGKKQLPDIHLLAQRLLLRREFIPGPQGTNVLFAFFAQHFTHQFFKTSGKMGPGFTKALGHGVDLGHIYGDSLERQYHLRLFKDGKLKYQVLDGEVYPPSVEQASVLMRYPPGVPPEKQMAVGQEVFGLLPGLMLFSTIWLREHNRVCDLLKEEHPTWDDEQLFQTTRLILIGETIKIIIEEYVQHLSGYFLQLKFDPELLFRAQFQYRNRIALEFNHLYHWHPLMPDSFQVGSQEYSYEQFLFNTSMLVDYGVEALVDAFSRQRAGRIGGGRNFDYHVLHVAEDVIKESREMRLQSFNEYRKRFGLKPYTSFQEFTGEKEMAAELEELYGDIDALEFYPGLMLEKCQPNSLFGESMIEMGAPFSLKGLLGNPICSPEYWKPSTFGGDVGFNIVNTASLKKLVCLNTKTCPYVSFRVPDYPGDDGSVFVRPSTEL
In kind it is functional.

The next assay concerns the target T2, Endothelin-1 receptor (Homo sapiens, UniProt P25101).
T2 sequence (P25101 whole entry): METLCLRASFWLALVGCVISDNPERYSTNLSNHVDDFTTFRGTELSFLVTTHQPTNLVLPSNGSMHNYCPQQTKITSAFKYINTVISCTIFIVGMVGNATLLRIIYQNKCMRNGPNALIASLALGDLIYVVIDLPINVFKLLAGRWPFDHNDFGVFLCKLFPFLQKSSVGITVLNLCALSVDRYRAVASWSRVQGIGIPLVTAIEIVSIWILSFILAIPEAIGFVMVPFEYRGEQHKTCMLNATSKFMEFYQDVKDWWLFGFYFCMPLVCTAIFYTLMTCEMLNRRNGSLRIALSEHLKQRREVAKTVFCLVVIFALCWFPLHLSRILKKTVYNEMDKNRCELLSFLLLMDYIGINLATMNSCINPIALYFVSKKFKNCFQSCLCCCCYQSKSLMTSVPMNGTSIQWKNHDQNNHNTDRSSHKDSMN

For assay [3], the target named is Glutamate receptor ionotropic, NMDA 1 (Rattus norvegicus, UniProt P35439).
For assay [4], the target named is Delta-type opioid receptor (Homo sapiens, UniProt P41143).
For assay [5], the target named is T3, 5-hydroxytryptamine receptor 3A (Homo sapiens, UniProt P46098).
T3 sequence (P46098 whole entry): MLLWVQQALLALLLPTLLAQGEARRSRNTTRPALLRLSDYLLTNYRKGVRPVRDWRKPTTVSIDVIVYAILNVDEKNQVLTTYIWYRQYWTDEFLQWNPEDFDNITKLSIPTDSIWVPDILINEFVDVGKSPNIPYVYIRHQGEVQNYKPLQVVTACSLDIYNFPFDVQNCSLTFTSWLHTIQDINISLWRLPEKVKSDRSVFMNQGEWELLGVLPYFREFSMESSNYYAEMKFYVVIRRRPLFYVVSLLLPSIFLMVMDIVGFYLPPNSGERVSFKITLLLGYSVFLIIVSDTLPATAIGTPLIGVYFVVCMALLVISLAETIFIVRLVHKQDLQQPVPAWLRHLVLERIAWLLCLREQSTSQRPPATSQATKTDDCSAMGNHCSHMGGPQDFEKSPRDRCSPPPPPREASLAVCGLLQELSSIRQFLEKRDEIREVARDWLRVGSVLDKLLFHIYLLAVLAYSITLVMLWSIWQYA
Type of assay: functional.

Assay [6] deals with T4, Type-1 angiotensin II receptor (Homo sapiens, UniProt P30556).
T4 sequence (P30556 whole entry): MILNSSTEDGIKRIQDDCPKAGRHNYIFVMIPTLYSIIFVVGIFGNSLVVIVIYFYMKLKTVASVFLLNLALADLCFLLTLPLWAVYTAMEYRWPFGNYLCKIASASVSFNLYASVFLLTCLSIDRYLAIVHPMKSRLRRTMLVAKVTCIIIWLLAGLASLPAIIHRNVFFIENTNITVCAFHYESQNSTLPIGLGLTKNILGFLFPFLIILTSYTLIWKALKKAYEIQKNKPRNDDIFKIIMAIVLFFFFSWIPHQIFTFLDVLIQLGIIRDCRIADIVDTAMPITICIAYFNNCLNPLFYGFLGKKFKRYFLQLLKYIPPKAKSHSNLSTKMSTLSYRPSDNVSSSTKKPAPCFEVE

In another assay the target is T5, Adenosine receptor A1 (Homo sapiens, UniProt P30542).
T5 sequence (P30542 whole entry): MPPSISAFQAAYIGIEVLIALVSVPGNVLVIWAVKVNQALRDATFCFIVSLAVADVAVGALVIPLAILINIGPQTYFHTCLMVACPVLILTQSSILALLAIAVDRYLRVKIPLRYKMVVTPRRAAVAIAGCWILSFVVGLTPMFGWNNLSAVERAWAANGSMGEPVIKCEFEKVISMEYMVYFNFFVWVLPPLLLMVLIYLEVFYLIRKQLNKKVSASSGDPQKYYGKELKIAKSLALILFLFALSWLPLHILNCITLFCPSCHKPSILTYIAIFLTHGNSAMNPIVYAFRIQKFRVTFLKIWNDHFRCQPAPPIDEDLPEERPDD

The target in another assay is Histamine H2 receptor (Homo sapiens, UniProt P25021). Type of assay: functional, cell-based.
A further assay concerns the target D(1A) dopamine receptor (Homo sapiens, UniProt P21728). In kind it is functional, cell-based.
Also: assay procedure not described here.

Sequence of Melanocortin receptor 3 (P41968 whole entry): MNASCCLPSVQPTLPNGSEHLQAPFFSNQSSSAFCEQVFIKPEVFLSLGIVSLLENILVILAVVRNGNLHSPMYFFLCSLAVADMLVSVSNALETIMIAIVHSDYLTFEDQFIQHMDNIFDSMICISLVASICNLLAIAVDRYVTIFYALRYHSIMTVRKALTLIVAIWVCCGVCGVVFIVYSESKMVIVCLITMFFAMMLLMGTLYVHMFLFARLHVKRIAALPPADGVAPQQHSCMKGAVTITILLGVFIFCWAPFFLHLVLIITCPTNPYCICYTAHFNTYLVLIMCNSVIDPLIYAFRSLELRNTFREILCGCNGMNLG
Sequence of Kappa-type opioid receptor (P41145 whole entry): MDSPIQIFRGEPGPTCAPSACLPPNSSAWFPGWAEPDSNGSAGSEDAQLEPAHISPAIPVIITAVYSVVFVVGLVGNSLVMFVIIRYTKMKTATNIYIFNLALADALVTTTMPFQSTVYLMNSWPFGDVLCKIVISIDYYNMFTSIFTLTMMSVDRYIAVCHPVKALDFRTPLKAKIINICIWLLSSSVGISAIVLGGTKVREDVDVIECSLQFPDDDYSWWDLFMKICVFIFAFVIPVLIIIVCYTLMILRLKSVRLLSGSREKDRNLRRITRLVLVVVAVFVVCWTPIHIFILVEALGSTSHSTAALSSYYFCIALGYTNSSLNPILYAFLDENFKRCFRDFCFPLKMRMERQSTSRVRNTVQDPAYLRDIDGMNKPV
Sequence of D(1A) dopamine receptor (P21728 whole entry): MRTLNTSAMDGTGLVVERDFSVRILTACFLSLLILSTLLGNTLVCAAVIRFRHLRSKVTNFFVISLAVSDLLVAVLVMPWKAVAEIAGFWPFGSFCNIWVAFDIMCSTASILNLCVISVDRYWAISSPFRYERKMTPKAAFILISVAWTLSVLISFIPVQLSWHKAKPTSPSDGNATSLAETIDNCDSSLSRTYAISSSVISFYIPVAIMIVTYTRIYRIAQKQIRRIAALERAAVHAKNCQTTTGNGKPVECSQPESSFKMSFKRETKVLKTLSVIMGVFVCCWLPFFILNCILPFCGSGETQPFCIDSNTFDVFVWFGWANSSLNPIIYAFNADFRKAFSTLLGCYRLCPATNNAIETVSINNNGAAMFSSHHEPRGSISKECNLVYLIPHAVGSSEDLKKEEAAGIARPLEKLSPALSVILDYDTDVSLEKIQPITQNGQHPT
Sequence of Melanocortin receptor 4 (P32245 whole entry): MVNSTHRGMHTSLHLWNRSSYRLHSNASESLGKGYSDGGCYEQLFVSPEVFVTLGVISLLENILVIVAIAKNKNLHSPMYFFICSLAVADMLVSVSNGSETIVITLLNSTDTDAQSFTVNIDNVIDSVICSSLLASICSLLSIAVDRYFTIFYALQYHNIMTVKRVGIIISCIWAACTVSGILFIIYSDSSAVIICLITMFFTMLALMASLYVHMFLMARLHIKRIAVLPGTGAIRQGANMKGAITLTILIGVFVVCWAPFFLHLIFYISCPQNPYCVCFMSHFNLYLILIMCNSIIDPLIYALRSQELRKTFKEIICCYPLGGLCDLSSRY
Sequence of Cannabinoid receptor 1 (P21554 whole entry): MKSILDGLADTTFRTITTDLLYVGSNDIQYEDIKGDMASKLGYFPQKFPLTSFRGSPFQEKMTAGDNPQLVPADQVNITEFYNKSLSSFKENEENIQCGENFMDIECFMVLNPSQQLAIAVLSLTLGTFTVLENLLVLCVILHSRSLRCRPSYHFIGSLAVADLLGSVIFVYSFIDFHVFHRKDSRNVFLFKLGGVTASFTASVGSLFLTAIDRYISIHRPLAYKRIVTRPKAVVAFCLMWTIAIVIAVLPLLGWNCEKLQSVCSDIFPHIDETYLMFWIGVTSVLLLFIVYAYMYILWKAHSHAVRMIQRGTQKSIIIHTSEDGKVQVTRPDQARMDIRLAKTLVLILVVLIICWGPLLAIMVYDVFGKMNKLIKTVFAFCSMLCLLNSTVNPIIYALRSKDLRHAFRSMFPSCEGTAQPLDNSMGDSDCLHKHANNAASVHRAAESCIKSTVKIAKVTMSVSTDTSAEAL
Sequence of Histamine H2 receptor (P25021 whole entry): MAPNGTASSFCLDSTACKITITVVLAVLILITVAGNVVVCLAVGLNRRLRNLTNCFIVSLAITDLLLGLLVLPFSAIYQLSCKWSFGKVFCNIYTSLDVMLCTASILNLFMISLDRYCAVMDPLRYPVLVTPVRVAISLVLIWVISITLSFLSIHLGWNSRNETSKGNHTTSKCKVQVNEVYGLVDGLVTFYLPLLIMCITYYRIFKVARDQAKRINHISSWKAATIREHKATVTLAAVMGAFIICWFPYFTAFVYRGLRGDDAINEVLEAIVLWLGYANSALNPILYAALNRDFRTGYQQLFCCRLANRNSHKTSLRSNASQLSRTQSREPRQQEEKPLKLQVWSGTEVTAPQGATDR
Sequence of Motilin receptor (O43193 whole entry): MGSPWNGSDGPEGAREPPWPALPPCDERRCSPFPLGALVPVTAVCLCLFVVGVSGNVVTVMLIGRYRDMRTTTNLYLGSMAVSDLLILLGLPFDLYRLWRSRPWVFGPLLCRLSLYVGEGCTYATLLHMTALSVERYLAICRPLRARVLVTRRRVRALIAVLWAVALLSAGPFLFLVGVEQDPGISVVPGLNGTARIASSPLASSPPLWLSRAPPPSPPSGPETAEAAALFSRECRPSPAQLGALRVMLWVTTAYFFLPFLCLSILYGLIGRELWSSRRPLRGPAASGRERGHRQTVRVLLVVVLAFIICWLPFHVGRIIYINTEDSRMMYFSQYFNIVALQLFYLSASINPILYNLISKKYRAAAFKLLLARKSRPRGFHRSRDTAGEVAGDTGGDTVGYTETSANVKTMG
Sequence of Vasopressin V2 receptor (P30518 whole entry): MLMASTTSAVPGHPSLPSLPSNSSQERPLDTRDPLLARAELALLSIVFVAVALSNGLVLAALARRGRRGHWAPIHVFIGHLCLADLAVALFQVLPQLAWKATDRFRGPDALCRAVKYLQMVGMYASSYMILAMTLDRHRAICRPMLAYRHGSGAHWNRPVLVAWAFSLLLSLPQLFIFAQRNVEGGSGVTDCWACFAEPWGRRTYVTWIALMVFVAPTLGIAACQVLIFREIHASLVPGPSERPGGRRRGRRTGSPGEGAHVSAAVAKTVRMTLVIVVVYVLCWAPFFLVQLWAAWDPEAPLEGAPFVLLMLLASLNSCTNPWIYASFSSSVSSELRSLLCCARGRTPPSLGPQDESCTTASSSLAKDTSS
Sequence of Delta-type opioid receptor (P41143 whole entry): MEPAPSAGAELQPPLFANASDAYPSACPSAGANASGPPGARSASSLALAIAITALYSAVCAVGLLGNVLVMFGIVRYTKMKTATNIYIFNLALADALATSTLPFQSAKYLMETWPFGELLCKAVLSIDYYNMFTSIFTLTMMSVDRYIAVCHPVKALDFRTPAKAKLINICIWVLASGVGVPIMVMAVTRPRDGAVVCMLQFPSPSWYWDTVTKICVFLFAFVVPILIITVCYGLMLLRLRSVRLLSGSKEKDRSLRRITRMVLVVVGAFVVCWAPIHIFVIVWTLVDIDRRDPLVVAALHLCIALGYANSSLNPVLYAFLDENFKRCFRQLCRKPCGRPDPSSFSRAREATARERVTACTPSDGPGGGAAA

Regarding `C[C@]1(COc2ccc(N3CCC(Oc4ccc(OC(F)(F)F)cc4)CC3)cc2)Cn2cc([N+](=O)[O-])nc2O1`, the half-maximal activity concentration (AC50) in assay [1] was more than 10 µM; in assay [2], more than 30 µM; at Melanocortin receptor 3 it was more than 30 µM; on Vasopressin V2 receptor, more than 30 µM; at Endothelin-1 receptor it was more than 30 µM; in assay [3], more than 10 µM. Also, the AC50 in assay [4] is more than 30 µM; in assay [5] it was more than 10 µM; at Cannabinoid receptor 1, more than 10 µM; in assay [6], more than 30 µM; at Melanocortin receptor 4 it was more than 30 µM; on Motilin receptor, more than 10 µM. In addition, the AC50 on Adenosine receptor A1 was more than 30 µM.

On to `CC(=O)OCC[N+](C)(C)C` [ACETYLCHOLINE], for which the AC50 was more than 10 µM at Histamine H2 receptor; more than 10 µM in assay [1]; more than 30 µM in [2]; more than 30 µM on Melanocortin receptor 3; more than 30 µM on Vasopressin V2 receptor; more than 30 µM on Endothelin-1 receptor. The AC50 in [3] was more than 10 µM; in [4], more than 10 µM; at D(1A) dopamine receptor it was more than 10 µM; in [5], more than 10 µM; at Cannabinoid receptor 1, more than 10 µM; in assay [6], more than 30 µM. For the same molecule, the AC50 on Melanocortin receptor 4, on Motilin receptor and on Adenosine receptor A1 was more than 30 µM each time.

Turning to `O=C(Nc1nc(-c2cc(Cl)cs2)c(N2CCN(C3CCCCC3)CC2)s1)c1cnc(N2CCC(C(=O)O)CC2)c(Cl)c1` [AVATROMBOPAG], the AC50 (in assay [1]; on Melanocortin receptor 3; on Endothelin-1 receptor; in assay [3]; in assay [4]; in [5]) was more than 10 µM each time. Besides, the concentration at half-maximal activity (AC50) (on Cannabinoid receptor 1; in assay [6]; at Melanocortin receptor 4; on Motilin receptor; at Adenosine receptor A1) was more than 10 µM throughout.

For `C[C@H]1C[C@H]2[C@@H]3CCC4=CC(=O)C=C[C@]4(C)[C@@]3(Cl)[C@@H](O)C[C@]2(C)[C@@]1(O)C(=O)CO` [BECLOMETHASONE], the AC50 is more than 10 µM in [1]; more than 30 µM in [2]; more than 30 µM on Melanocortin receptor 3; more than 30 µM at Vasopressin V2 receptor; more than 30 µM at Endothelin-1 receptor; more than 10 µM in [3]. The AC50 in [4] was more than 30 µM; in assay [5] it was more than 30 µM; on Cannabinoid receptor 1, more than 10 µM; in [6] it was more than 30 µM; on Melanocortin receptor 4, more than 30 µM; on Motilin receptor it was more than 10 µM. The molecule further had an AC50 on Adenosine receptor A1 of more than 30 µM.

On to `COc1ccc2c(c1)[C@]13CCCC[C@@H]1[C@H](C2)N(C)CC3` [DEXTROMETHORPHAN], for which the AC50 on Histamine H2 receptor was more than 10 µM; in assay [2] it was more than 30 µM; on Melanocortin receptor 3 it was more than 30 µM; on Vasopressin V2 receptor, more than 30 µM; on Endothelin-1 receptor, more than 30 µM; in [4], more than 10 µM. For the same molecule, the AC50 on D(1A) dopamine receptor is more than 10 µM; in assay [5] it was more than 10 µM; on Cannabinoid receptor 1, more than 10 µM; in [6] it was more than 30 µM; on Melanocortin receptor 4, more than 30 µM; at Motilin receptor, more than 10 µM. This molecule gave an AC50 at Adenosine receptor A1 of more than 30 µM.

Regarding `C#C[C@]1(O)CC[C@H]2[C@@H]3CCc4cc(OC)ccc4[C@H]3CC[C@@]21C` [MESTRANOL], the AC50 is more than 30 µM on Histamine H2 receptor; more than 10 µM in assay [1]; more than 10 µM in [2]; more than 10 µM at Melanocortin receptor 3; more than 10 µM at Vasopressin V2 receptor; more than 10 µM in assay [3]. Besides, the AC50 was more than 30 µM in assay [4]; more than 10 µM at D(1A) dopamine receptor; more than 30 µM in [5]; more than 10 µM at Cannabinoid receptor 1; more than 10 µM in assay [6]; more than 10 µM at Melanocortin receptor 4. Besides, the values for the AC50 on Motilin receptor and at Adenosine receptor A1 were more than 10 µM and more than 30 µM, respectively.

Take `COCCCOc1ccnc(C[S+]([O-])c2nc3ccccc3[nH]2)c1C` (configuration not stated) [RABEPRAZOLE]: the AC50 was more than 10 µM on Histamine H2 receptor; more than 10 µM in [1]; more than 30 µM in assay [2]; more than 30 µM at Melanocortin receptor 3; more than 30 µM on Vasopressin V2 receptor; more than 30 µM at Endothelin-1 receptor. Also, the AC50 is more than 10 µM in [3]; more than 30 µM in assay [4]; more than 10 µM at D(1A) dopamine receptor; 6 µM in assay [5]; more than 10 µM at Cannabinoid receptor 1; more than 30 µM in assay [6]. Besides, the AC50 at Melanocortin receptor 4 is more than 30 µM; at Motilin receptor, more than 10 µM; at Adenosine receptor A1, 22.5 µM.

As for `CN(C)c1cc(NC(=O)CNC(C)(C)C)c(O)c2c1C[C@H]1C[C@H]3[C@H](N(C)C)C(O)=C(C(N)=O)C(=O)[C@@]3(O)C(O)=C1C2=O` [TIGECYCLINE], the AC50 on Histamine H2 receptor is more than 30 µM; in [1], more than 30 µM; in assay [2], 0.16 µM; at Melanocortin receptor 3, more than 30 µM; at Vasopressin V2 receptor, more than 30 µM; in assay [3], more than 30 µM. Moreover, the AC50 (in assay [4]; on D(1A) dopamine receptor; in assay [5]; on Cannabinoid receptor 1; in assay [6]; at Melanocortin receptor 4) was more than 30 µM throughout. The AC50 at Motilin receptor and at Adenosine receptor A1 was more than 30 µM in each case.

On to `OCCN1CCN(CC/C=C2/c3ccccc3Sc3ccc(Cl)cc32)CC1` [ZUCLOPENTHIXOL], for which the AC50 on Histamine H2 receptor was more than 10 µM; in assay [1], 1.94 µM; in [2], more than 10 µM; at Melanocortin receptor 3 it was more than 10 µM; at Vasopressin V2 receptor, more than 10 µM; in assay [3], more than 10 µM. Further, the AC50 is more than 30 µM in assay [4]; more than 10 µM on D(1A) dopamine receptor; more than 10 µM in assay [5]; more than 10 µM at Cannabinoid receptor 1; more than 30 µM in assay [6]; more than 10 µM at Melanocortin receptor 4. The AC50 at Motilin receptor and at Adenosine receptor A1 was more than 10 µM each time.

In general, AC50 refers to the midpoint of the concentration-response curve, whichever way the signal moves. Higher therefore signals activity only at high concentration.
